Test results from patent US20250268884A1, “Deuterated Domperidone for Treating Gastroparesis” (CinDome Pharma, Inc., priority 2022, published 2025).

Key:
[1] = test system: heart rate in healthy subjects; test: Thorough QT study, placebo-corrected change-from-baseline HR (ΔΔHR); assay type: in vivo, human; conditions: 400 mg moxifloxacin (Treatment C)
[2] = test system: cardiac repolarization (QTcF) in healthy subjects; conditions: human, in vivo
Source text: The same linear model was used for moxifloxacin.
The same linear model with a treatment effect-specific intercept as in the concentration-QTc analysis was used in the assay sensitivity analysis for moxifloxacin.

[3] = Thorough QT study, plasma pharmacokinetics; assay type: in vivo, human; conditions: 400 mg single dose, healthy subjects
Source text: Blood samples for PK determination were drawn at the same time points immediately after the ECG extractions.

[4] = test system: cardiac repolarization (QTcF) in healthy subjects; test: Thorough QT study, by-time point analysis of ΔΔQTcF; conditions: for ΔΔQTcF LS Mean: 400 mg moxifloxacin (Treatment C)
Description: The primary objective of this study was to assess the effect of CIN-102 on cardiac repolarization based on baseline and placebo-corrected change in corrected QT interval using Fridericia's formula (QTcF) in healthy subjects using a concentration-QTc analysis (primary analysis). Serial ECGs were extracted from continuous ECG recordings at prespecified time points starting at least one hour prior to dosing and ending approximately 48 hours post-dose in each period.
Primary analysis was based on concentration-QTc modeling of the relationship between plasma drug concentrations and change-from-baseline QTcF (ΔQTcF) with the intent to exclude an effect of placebo-corrected ΔQTcF (ΔΔQTcF) >10 milliseconds (ms) at clinically relevant plasma levels.
The study was a randomized, partially double-blind, active- and placebo-controlled, single dose, four-period, crossover study in healthy subjects 18-55 years of age.
In each treatment period, continuous 12-lead ECGs were recorded starting at least one hour prior to dosing and ending approximately 48 hours post-dose. Twelve-lead ECGs were extracted in up to 10 replicates at the central ECG laboratory (ERT, Philadelphia, PA) at the following time points in each period: at 3 time points within one hour prior to dosing (−45, −30 and −15 minutes) and at 0.5, 1, 1.5, 2, 2.5, 3, 4, 5, 6, 8, 12, 24, 36, and 48 hours after each dose. Subjects were supinely resting for at least 10 minutes before and 5 minutes after each time point. When ECG extractions coincided with safety, ECGs, vital signs assessment, and blood draws, procedures were carried out in said order. No PK or other laboratory draws were performed and the subject was not approached until at least 5 minutes had elapsed after the 5-minute window for 12-lead ECG extraction for QT analysis.
ECG intervals were measured by the core laboratory in a blinded manner using the Early Precision QT technique (EPQT). The ECG database was locked before any statistical analysis was undertaken.
At each nominal time point specified in the protocol, up to 10 ECG replicates were extracted with TQT Plus methods. All readable cardiac cycles from these ECG replicates were assessed for multiple quality metrics, including beat stability, HR changes, noise, and other parameters, and were categorized into high and low confidence rank. All low confidence beats were fully reviewed and adjudicated manually by ECG technicians using pass-fail criteria. The beats found acceptable by manual review were included in the analysis.
An unstructured covariance structure was used to specify the repeated measures at post-dose time points for subject within treatment period. The model also included a subject-specific random effect. Treatment A: 30 mg CIN-102 [representing approximate steady-state therapeutic exposures in subject population] Treatment B: 100 mg CIN-102 [representing potential steady-state supratherapeutic exposures in subjects] Treatment C: 400 mg open-label moxifloxacin.

healthy subjects = test: Thorough QT study, categorical outliers and T-wave morphology
Description: Categorical T-wave morphology analysis and measurement of PR and QRS intervals were fully performed manually using a semi-automated process in 3 of the 10 ECG replicates at each time point.
Treatment A: 30 mg CIN-102 [representing approximate steady-state therapeutic exposures in subject population]; Treatment B: 100 mg CIN-102 [representing potential steady-state supratherapeutic exposures in subjects]; Treatment C: 400 mg open-label moxifloxacin; Treatment D: CIN-102 placebo. A subject can appear in more than 1 category. The denominator (Total) is defined as the number of subjects or time points in the QT/QTc population for each treatment.

[5] = test system: cardiac conduction (PR interval) in healthy subjects; test: Thorough QT study, placebo-corrected change-from-baseline PR (ΔΔPR); conditions: 400 mg moxifloxacin (Treatment C)
Source text: The secondary endpoints were: • Change-from-baseline QTcF, HR, PR, QRS intervals (ΔQTcF, ΔHR, ΔPR, and ΔQRS) • Placebo-corrected change-from-baseline HR, PR, and QRS (ΔΔHR, ΔΔPR, ΔΔQRS) • Categorical outliers for QTcF, HR, PR, and QRS • Frequency of treatment-emergent changes of T-wave morphology and U-waves presence
(§1) Categorical T-wave morphology analysis and measurement of PR and QRS intervals were fully performed manually using a semi-automated process in 3 of the 10 ECG replicates at each time point. Final quality control and diagnostic interpretations were performed by the study cardiologist.
An unstructured covariance structure was used to specify the repeated measures at post-dose time points for subject within treatment period. The model also included a subject-specific random effect. Treatment A: 30 mg CIN-102 [representing approximate steady-state therapeutic exposures in subject population]; Treatment B: 100 mg CIN-102 [representing potential steady-state supratherapeutic exposures in subjects]; Treatment C: 400 mg open-label moxifloxacin

[6] = test system: cardiac conduction (QRS interval) in healthy subjects; test: Thorough QT study, placebo-corrected change-from-baseline QRS (ΔΔQRS); conditions: 400 mg moxifloxacin (Treatment C)
Description: as §1
An unstructured covariance structure was used to specify the repeated measures at post-dose time points for subject within treatment period. The model also included a subject-specific random effect.

[7] = 400 mg moxifloxacin (Treatment C), Total 51 subjects
[8] = 400 mg moxifloxacin (Treatment C), Total 762 time points
[9] = Treatment C: 400 mg open-label moxifloxacin, of 51 subjects
[10] = Treatment C: 400 mg open-label moxifloxacin, of 762 time points

Structure (SMILES): COc1c(N2C[C@@H]3CCCN[C@@H]3C2)c(F)cc2c(=O)c(C(=O)O)cn(C3CC3)c12 [moxifloxacin]
- ΔΔHR LS Mean ([1]; 0.5 H Post Dose): 1.9 bpm
- ΔΔHR LS Mean ([1]; 1 H Post Dose): 2.2 bpm
- ΔΔHR LS Mean ([1]; 1.5 H Post Dose): 1.0 bpm
- ΔΔHR LS Mean ([1]; 2 H Post Dose): 1.3 bpm
- ΔΔHR LS Mean ([1]; 2.5 H Post Dose): −0.3 bpm
- ΔΔHR LS Mean ([1]; 3 H Post Dose): −0.0 bpm
- ΔΔHR LS Mean ([1]; 4 H Post Dose): 0.7 bpm
- ΔΔHR LS Mean ([1]; 5 H Post Dose): −0.0 bpm
- ΔΔHR LS Mean ([1]; 6 H Post Dose): −1.3 bpm
- ΔΔHR LS Mean ([1]; 8 H Post Dose): 0.7 bpm
- ΔΔHR LS Mean ([1]; 12 H Post Dose): −1.9 bpm
- ΔΔHR LS Mean ([1]; 24 H Post Dose): −0.1 bpm
- ΔΔHR LS Mean ([1]; 36 H Post Dose): −0.3 bpm
- ΔΔHR LS Mean ([1]; 48 H Post Dose): 0.8 bpm
- lower bound of the 2-sided CI of the predicted QT effect [2]: above 5 ms
- geometric mean peak moxifloxacin concentration [3]: 1552.6 ng/mL
- peak LS mean ΔΔQTcF ([4]; 400 mg oral moxifloxacin, 3 hours post-dose): 13.3 ms
- ΔΔQTcF LS Mean ([4]; 0.5 H Post Dose): 5.8 ms
- ΔΔQTcF LS Mean ([4]; 1 H Post Dose): 12.2 ms
- ΔΔQTcF LS Mean ([4]; 1.5 H Post Dose): 10.9 ms
- ΔΔQTcF LS Mean ([4]; 2 H Post Dose): 11.3 ms
- ΔΔQTcF LS Mean ([4]; 2.5 H Post Dose): 11.7 ms
- ΔΔQTcF LS Mean ([4]; 3 H Post Dose): 13.3 ms
- ΔΔQTcF LS Mean ([4]; 4 H Post Dose): 12.1 ms
- ΔΔQTcF LS Mean ([4]; 5 H Post Dose): 10.3 ms
- ΔΔQTcF LS Mean ([4]; 6 H Post Dose): 7.5 ms
- ΔΔQTcF LS Mean ([4]; 8 H Post Dose): 8.9 ms
- ΔΔQTcF LS Mean ([4]; 12 H Post Dose): 8.2 ms
- ΔΔQTcF LS Mean ([4]; 24 H Post Dose): 4.0 ms
- ΔΔQTcF LS Mean ([4]; 36 H Post Dose): 3.0 ms
- ΔΔQTcF LS Mean ([4]; 48 H Post Dose): 2.6 ms
- Subjects with QTcF >450 and <=480 ms, number (healthy subjects; [7]): 6
- Subjects with QTcF >450 and <=480 ms, percent (healthy subjects; [7]): (11.8%)
- Subjects with QTcF >480 and <=500 ms, number (healthy subjects; [7]): 0
- Subjects with QTcF >500 ms, number (healthy subjects; [7]): 0
- Time points with QTcF >450 and <=480 ms, number (healthy subjects; [8]): 19
- Time points with QTcF >450 and <=480 ms, percent (healthy subjects; [8]): (2.5%)
- Time points with QTcF >480 and <=500 ms, number (healthy subjects; [8]): 0
- Time points with QTcF >500 ms, number (healthy subjects; [8]): 0
- subjects with QTcF >450 and <480 ms (healthy subjects; 400 mg moxifloxacin, at 19 time points): 6 subject(s)
- QTcF outliers per change-from-baseline category: QTcF >30 and <=60 ms, subjects (healthy subjects; [9]): 0
- QTcF outliers per change-from-baseline category: QTcF >60 ms, subjects (healthy subjects; [9]): 0
- QTcF outliers per change-from-baseline category: QTcF >30 and <=60 ms, time points (healthy subjects; [10]): 0
- QTcF outliers per change-from-baseline category: QTcF >60 ms, time points (healthy subjects; [10]): 0
- subjects with treatment-emergent inverted T waves (healthy subjects; moxifloxacin treatment period, at 1 time point): 1 subject
- ΔΔPR LS Mean ([5]; 0.5 H Post Dose): -3.4 ms
- ΔΔPR LS Mean ([5]; 1 H Post Dose): -2.9 ms
- ΔΔPR LS Mean ([5]; 1.5 H Post Dose): -3.6 ms
- ΔΔPR LS Mean ([5]; 2 H Post Dose): -2.5 ms
- ΔΔPR LS Mean ([5]; 2.5 H Post Dose): -1.3 ms
- ΔΔPR LS Mean ([5]; 3 H Post Dose): -2.7 ms
- ΔΔPR LS Mean ([5]; 4 H Post Dose): -2.0 ms
- ΔΔPR LS Mean ([5]; 5 H Post Dose): -2.0 ms
- ΔΔPR LS Mean ([5]; 6 H Post Dose): -3.0 ms
- ΔΔPR LS Mean ([5]; 8 H Post Dose): -0.9 ms
- ΔΔPR LS Mean ([5]; 12 H Post Dose): -0.0 ms
- ΔΔPR LS Mean ([5]; 24 H Post Dose): -2.5 ms
- ΔΔPR LS Mean ([5]; 36 H Post Dose): 0.9 ms
- ΔΔPR LS Mean ([5]; 48 H Post Dose): -0.3 ms
- ΔΔQRS LS Mean ([6]; 0.5 H Post Dose): 0.1 ms
- ΔΔQRS LS Mean ([6]; 1 H Post Dose): 0.5 ms
- ΔΔQRS LS Mean ([6]; 1.5 H Post Dose): 0.3 ms
- ΔΔQRS LS Mean ([6]; 2 H Post Dose): 0.4 ms
- ΔΔQRS LS Mean ([6]; 2.5 H Post Dose): 0.4 ms
- ΔΔQRS LS Mean ([6]; 3 H Post Dose): 0.6 ms
- ΔΔQRS LS Mean ([6]; 4 H Post Dose): 0.1 ms
- ΔΔQRS LS Mean ([6]; 5 H Post Dose): 0.7 ms
- ΔΔQRS LS Mean ([6]; 6 H Post Dose): -0.1 ms
- ΔΔQRS LS Mean ([6]; 8 H Post Dose): 0.5 ms
- ΔΔQRS LS Mean ([6]; 12 H Post Dose): 0.1 ms
- ΔΔQRS LS Mean ([6]; 24 H Post Dose): 0.0 ms
- ΔΔQRS LS Mean ([6]; 36 H Post Dose): 0.5 ms
- ΔΔQRS LS Mean ([6]; 48 H Post Dose): 0.6 ms
